From patent publication US20240238448A1, “USE OF CHEMICAL EPIGENETIC MODIFIERS TO MODULATE GENE […] VECTORS” (The University of North Carolina at Chapel Hill, priority 2021, published 2024)
Read-outs that look alike come from different tables or passages of the source.

Columns and labels:
[1] = test system: transgene (firefly luciferase) expression in HEK293T.17 cells; assay: ZF-CEM technology AAV transgene expression, Promega Dual Luciferase Assay in HEK293T.17 cells; assay type: cell-based, human
Experimental: At a higher viral genomes per cell dose of virus, higher fold change in transgene (firefly luciferase) expression was seen. HEK293T.17 cells that stably express Renilla Luciferase (for normalization purposes) were plated at 7.5K cells per well in a 96 well plate. The next day, the cells were infected with ZF-CEM technology virus at either 2K or 20K vg/cell. After 24 hours, the cells were treated with varying concentrations of CEM87. After an additional 48 hours (72 hours post initial AAV infection), a Promega Dual Luciferase Assay was run to determine the levels of luciferase.
At 20K viral genomes per cell, ZF-CEM technology was able to increase the levels of transgene (firefly luciferase) expression in a statistically significant manner as early as 24 hours and continue to have effects up to 96 hours post CEM87 addition (FIG. 16). The highest fold change in luciferase expression was seen 24 hours after CEM87 dosage (48 hours after AAV infection). HEK293T.17 cells that stably express Renilla Luciferase (for normalization purposes) were plated at 7.5K cells per well in a 96 well plate. The next day, the cells were infected with ZF-CEM technology virus at 20K vg/cell. After 24 hours, the cells were treated with 200 nM CEM87. A Promega Dual Luciferase Assay was run every 24 hours post CEM87 dosage to determine the levels of luciferase over time.
At 20K viral genomes per cell, the impact of ZF-CEM technology on transgene expression was reversible through washout or washout with the addition of FK506, a chemical capable of competing off CEM87 from the transgene it is recruited to (FIG. 17). Reversibility was achieved within 24 hours of removal of CEM87 through washout or washout and treatment with 100× more FK506 ([…]). HEK293T.17 cells that stably express Renilla Luciferase (for normalization purposes) were plated at 7.5K cells per well in a 96 well plate. The next day, the cells were infected with ZF-CEM technology virus at 20K vg/cell. After 24 hours, the cells were treated with 200 nM CEM87. After 48 hours, wells were either washed out with fresh media or washed out with fresh media that contained […]. A Promega Dual Luciferase Assay was run every 24 hours post washout/FK506 dosage to determine the levels of luciferase over time.
HEK293T.17 cells that stably express Renilla Luciferase (for normalization purposes) were plated at 7.5K cells per well in a 96 well plate. The next day, the cells were infected with ZF-CEM technology virus at 20K vg/cell. After 24 hours, the cells were treated with 200 nM CEM114. After 48 hours, a Promega Dual Luciferase Assay was run to determine the levels of luciferase.

[2] = Pharmacokinetics of CEM87 in mice; details: mouse, in vivo
Experimental: Pharmacokinetic Data of CEM87 in Mice: Initial and encouraging pharmacokinetics (PK) analysis of CEM87 were conducted. Mice were administered a single 3 mg/kg dose of CEM87 via intravenous (IV) injection or a single dose of 30 mg/kg of CEM87 through the intraperitoneal (IP) route (n=9 per group, 3 mice per time point).

[3] = test system: AAV2-BD-JET-GFP genomes in 293-ZF-FKBP cells; assay: CEM activation of AAV2-BD-JET-GFP vectors in 293-ZF-FKBP cells, GFP fluorescence by flow cytometry; assay type: cell-based, human; details: AAV vectors without the engrafted ZF BD, or AAV2-BD-JET-GFP in WT 293 cells
Experimental: It was then examined whether CEM87 can control recombinant AAV transgene expression in transduced cells. HEK293T.17 cells that stably expresses ZF-FKBP were transduced with an AAV2 vector that contains a zinc finger DNA binding domain recognition sequence specific to the array in ZF-FKBP upstream of a JET promoter and an eGPF reporter gene downstream of the promoter. After 24 h the cell media was replaced with media containing either 200 nM CEM87 or a DMSO control. 48 hours post CEM87 addition, cells were imaged and flow cytometry run to determine the percent eGFP expression.
Some of these experiments relied on a 293 cell line harboring a stable constitutive ZF-FKBP cassette (293-ZF-FKBP) and transduction by AAV2-JET-GFP vectors harboring the ZF binding domain recognition sequence (BD) upstream of the constitutive JET promoter (FIG. 5). Two chemicals were investigated in these initial studies, CEM87 and CEM114 which bind ZF-FKBP and act to recruit BRD4 or CBP/p300, respectively. […] Following the transduction of AAV2-BD-Jet-GFP vectors to 293-ZF-FKBP cells, increasing concentrations of CEMs (87 or 114) were added to the culture medium. Two days later, GFP fluorescence was analyzed by flow cytometry.

Compound	effect on AAV transgene expression (in words) ([1]; 20K vg/cell, 200 nM CEM114, 48 hours)	chemical control of transgene (firefly luciferase) expression (in words) ([1]; 2K or 20K vg/cell, varying concentrations, 48 hours after CEM87 (72 hours post AAV infection))	earliest time of statistically significant increase of transgene (firefly luciferase) expression post CEM87 addition ([1]; 20K vg/cell, 200 nM CEM87) [h]	time up to which effects on luciferase expression continue post CEM87 addition ([1]; 20K vg/cell, 200 nM CEM87)	time of highest fold change in luciferase expression after CEM87 dosage ([1]; 20K vg/cell, 200 nM CEM87, 48 hours after AAV infection) [h]	time to reversibility of transgene expression after removal of CEM87 ([1]; 20K vg/cell, 200 nM CEM87 for 48 hours, then washout or washout with 100× more FK506) [h]	AUC(0-t) ([2]; single 3 mg/kg IV, read-out: exposure (AUC0-24)) [ng·h/mL]	half-life ([2]; single 3 mg/kg IV, read-out: half-life (t1/2) (converted)) [h]	Cmax ([2]; single 3 mg/kg IV, read-out: maximal concentration (Cmax)) [ng/mL]	bioavailability ([2]; single 30 mg/kg IP) [%]	AUC(0-t) ([2]; single 30 mg/kg IP, read-out: AUC0-24) [ng·h/mL]	Cmax ([2]; single 30 mg/kg IP, read-out: Cmax) [ng/mL]	half-life ([2]; single 30 mg/kg IP, read-out: t1/2 (converted)) [h]	drug response in control experiments [3]
CO[C@H]1C[C@@H](C)C/C(C)=C/[C@@H](CCCSCCC(=O)NCCOCCOCCOCCn2cc(COc3ccc(CCc4nc5cc(-c6c(C)noc6C)ccc5n4CCN4CCOCC4)cc3F)nn2)C(=O)C[C@H](O)[C@@H](C)[C@@H](/C(C)=C/[C@@H]2CC[C@@H](O)[C@H](OC)C2)OC(=O)[C@@H]2CCCCN2C(=O)C(=O)[C@]2(O)O[C@H]1[C@@H](OC)C[C@H]2C [CEM114]	increase AAV transgene expression													
COc1ccc2c(c1)C(c1ccc(Cl)cc1)=N[C@@H](CC(=O)NCc1cn(CCOCCOCCOCCNC(=O)CCSCCC[C@@H]3/C=C(\C)C[C@H](C)C[C@H](OC)[C@H]4O[C@@](O)(C(=O)C(=O)N5CCCC[C@H]5C(=O)O[C@H](/C(C)=C/[C@@H]5CC[C@@H](O)[C@H](OC)C5)[C@H](C)[C@@H](O)CC3=O)[C@H](C)C[C@@H]4OC)nn1)c1nnc(C)n1-2 [CEM87]		dose dependent chemical control	24	up to 96 hours	24	≤ 24	27500	~4	34100	~50	114000	15500	4	no drug response
